Calls of active or inactive are those of the source.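 Rule for the calls: active = fitted curve reaches 200% activation at or below the highest valid dose tested for that compound; inconclusive = flat fit between 30 and 70% activation, or unreliable fit; inactive = the rest.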

The target in one test is Endoplasmic reticulum aminopeptidase 2 (Homo sapiens) (UniProt Q6P179). The experiment in a line: enhanced ERAP2 Arg-AMC hydrolysis – biochemical, fluorescence plate reader, cherry-picked samples, selectivity assay for selective ERAP1 modulator project, dose response (AID 743319). Conditions: recombinant ERAP2, Arg-AMC cleavage fluorescence, 1 h.
Sequence of Endoplasmic reticulum aminopeptidase 2 (Homo sapiens) (Q6P179 whole entry, looked up): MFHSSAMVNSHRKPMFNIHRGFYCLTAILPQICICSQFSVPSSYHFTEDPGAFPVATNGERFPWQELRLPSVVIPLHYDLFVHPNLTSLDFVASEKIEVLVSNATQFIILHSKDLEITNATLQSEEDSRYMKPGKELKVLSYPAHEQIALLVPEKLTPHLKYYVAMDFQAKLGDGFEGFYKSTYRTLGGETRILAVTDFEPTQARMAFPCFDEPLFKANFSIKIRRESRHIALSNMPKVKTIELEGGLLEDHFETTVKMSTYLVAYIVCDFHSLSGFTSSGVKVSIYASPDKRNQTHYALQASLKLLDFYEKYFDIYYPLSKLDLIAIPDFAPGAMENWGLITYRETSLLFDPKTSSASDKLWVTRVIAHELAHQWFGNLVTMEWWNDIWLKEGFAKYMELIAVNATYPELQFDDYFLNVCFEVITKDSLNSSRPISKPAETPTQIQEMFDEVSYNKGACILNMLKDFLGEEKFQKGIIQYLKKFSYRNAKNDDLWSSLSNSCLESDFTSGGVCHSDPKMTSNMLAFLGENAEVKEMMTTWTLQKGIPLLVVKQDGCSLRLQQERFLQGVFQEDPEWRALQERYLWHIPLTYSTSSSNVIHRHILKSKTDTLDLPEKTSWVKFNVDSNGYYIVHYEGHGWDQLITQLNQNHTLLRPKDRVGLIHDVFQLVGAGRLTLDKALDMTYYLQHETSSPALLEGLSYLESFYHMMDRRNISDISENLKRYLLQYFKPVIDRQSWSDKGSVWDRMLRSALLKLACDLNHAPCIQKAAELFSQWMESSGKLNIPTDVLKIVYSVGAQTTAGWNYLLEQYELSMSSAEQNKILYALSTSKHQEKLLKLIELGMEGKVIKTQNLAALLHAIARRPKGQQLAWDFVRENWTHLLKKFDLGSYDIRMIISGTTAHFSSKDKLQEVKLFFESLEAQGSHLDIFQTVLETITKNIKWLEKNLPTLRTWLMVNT
Take `CCc1c(C)c2cc(Cl)c(O)c(CN(C)C)c2oc1=O`: the AC200 is 803 nM.

Turning to `COCCCn1c(C(=O)N2CCOCC2)cc2c(=O)n3ccccc3nc21`, the AC200 was 6360 nM.

As for `COc1ccc(CNCc2c(O)c(Cl)cc3c(C)c(C)c(=O)oc23)c(OC)c1`, the AC200 is 1030 nM. Turning to `COc1ccc(C2=NN(c3ccc(C(=O)O)cc3)C(c3ccc(OC)c(OC)c3)C2)cc1` (centres undefined), the AC200 was 1580 nM.

Staying with this test, now noted: recombinant ERAP2, Arg-AMC cleavage fluorescence, 1 h; at 11 µM (top of the series).
`C[C@@H]1CCCCO[C@@H](CN(C)CC2CCCCC2)[C@H](C)CN([C@@H](C)CO)C(=O)c2cc(NC(=O)Nc3ccccc3)ccc2O1`: the activation was 12.1% (inactive). For the molecule `COc1ccc(CN(C)C[C@H]2OCCCC[C@@H](C)Oc3ccc(NS(=O)(=O)c4cccs4)cc3C(=O)N([C@H](C)CO)C[C@H]2C)cc1`, the activation was 3.67% (inactive). For `CCCN(C)C[C@@H]1OCCCC[C@@H](C)Oc2ccc(NS(=O)(=O)c3cccs3)cc2C(=O)N([C@H](C)CO)C[C@@H]1C`, the activation is 11% (inactive).

With `C[C@H]1CN([C@@H](C)CO)C(=O)c2cccc(NC(=O)Nc3ccc4c(c3)OCO4)c2O[C@@H]1CN(C)CC1CC1`, the activation is 12.8% (inactive). Turning to `COc1ccc(CN(C)C[C@@H]2OCCCC[C@@H](C)Oc3ccc(NS(=O)(=O)c4c(C)noc4C)cc3C(=O)N([C@@H](C)CO)C[C@@H]2C)cc1`, the activation is -1% (inactive).

The values above are taken from PubChem BioAssay AID743319 (Broad Institute, 2014).
